Source: ChEMBL document CHEMBL5303573, “Mapping human microbiome drug metabolism by gut bacteria and their genes” (Nature, 2019)

Experiments:
[1] = The drug is tested on Anaerococcus hydrogenalis strain: DSM7454 for biotransformation. The drug concentrations were measured before and after a 12-h incubation by liquid-chromatography-coupled mass spectrometry (LC–MS); settings: 2 µM
[2] = The drug is tested on Ruminococcus gnavus strain: ATCC29149 for biotransformation. The drug concentrations were measured before and after a 12-h incubation by liquid-chromatography-coupled mass spectrometry (LC–MS); settings: mediterraneibacter gnavus, 2 µM
[3] = The drug is tested on Eubacterium ventriosum strain: ATCC27560 for biotransformation. The drug concentrations were measured before and after a 12-h incubation by liquid-chromatography-coupled mass spectrometry (LC–MS); assay type: ADME; parameters: dose 2 uM, timepoint 0 vs 12 hours; settings: 2 µM
[4] = The drug is tested on Bacteroides cellulosilyticus strain: DSM14838 for biotransformation. The drug concentrations were measured before and after a 12-h incubation by liquid-chromatography-coupled mass spectrometry (LC–MS); settings: 2 µM
[5] = bacteroides thetaiotaomicron, 12 h, 2 µM
Description: The drug is tested on Bacteroides thetaiotaomicron strain: 3731 for biotransformation. The drug concentrations were measured before and after a 12-h incubation by liquid-chromatography-coupled mass spectrometry (LC–MS)

[6] = bacteroides fragilis, 12 h, 2 µM
Description: The drug is tested on Bacteroides fragilis strain: DS-208 for biotransformation. The drug concentrations were measured before and after a 12-h incubation by liquid-chromatography-coupled mass spectrometry (LC–MS)

[7] = The drug is tested on Bacteroides vulgatus strain: ATCC8482 for biotransformation. The drug concentrations were measured before and after a 12-h incubation by liquid-chromatography-coupled mass spectrometry (LC–MS); settings: phocaeicola vulgatus, 2 µM
[8] = The drug is tested on Anaerotruncus colihominis strain: DSM17241 for biotransformation. The drug concentrations were measured before and after a 12-h incubation by liquid-chromatography-coupled mass spectrometry (LC–MS); settings: 2 µM
[9] = The drug is tested on Eubacterium hallii strain: DSM3353 for biotransformation. The drug concentrations were measured before and after a 12-h incubation by liquid-chromatography-coupled mass spectrometry (LC–MS); settings: anaerobutyricum hallii, 2 µM
[10] = The drug is tested on Alistipes indistinctus strain: DSM22520 for biotransformation. The drug concentrations were measured before and after a 12-h incubation by liquid-chromatography-coupled mass spectrometry (LC–MS); settings: 2 µM
[11] = The drug is tested on Bacteroides finegoldii strain: DSM17565 for biotransformation. The drug concentrations were measured before and after a 12-h incubation by liquid-chromatography-coupled mass spectrometry (LC–MS); settings: 2 µM
[12] = The drug is tested on Clostridium scindens strain: ATCC35704 for biotransformation. The drug concentrations were measured before and after a 12-h incubation by liquid-chromatography-coupled mass spectrometry (LC–MS); settings: 2 µM
[13] = The drug is tested on Bacteroides coprophilus strain: DSM18228 for biotransformation. The drug concentrations were measured before and after a 12-h incubation by liquid-chromatography-coupled mass spectrometry (LC–MS); settings: 2 µM
[14] = parabacteroides distasonis, 12 h, 2 µM
Description: The drug is tested on Parabacteroides distasonis strain: ATCC8503 for biotransformation. The drug concentrations were measured before and after a 12-h incubation by liquid-chromatography-coupled mass spectrometry (LC–MS)

[15] = The drug is tested on Bifidobacterium breve strain: DSM20213 for biotransformation. The drug concentrations were measured before and after a 12-h incubation by liquid-chromatography-coupled mass spectrometry (LC–MS); settings: 2 µM
[16] = bacteroides fragilis, 12 h, 2 µM; remark: listed apart in the source
Description: The drug is tested on Bacteroides fragilis strain: 3397 (T10) for biotransformation. The drug concentrations were measured before and after a 12-h incubation by liquid-chromatography-coupled mass spectrometry (LC–MS)

[17] = bacteroides stercoris, 12 h, 2 µM
Description: The drug is tested on Bacteroides stercoris strain: ATCC43183 for biotransformation. The drug concentrations were measured before and after a 12-h incubation by liquid-chromatography-coupled mass spectrometry (LC–MS)

[18] = The drug is tested on Ruminococcus lactaris strain: ATCC29176 for biotransformation. The drug concentrations were measured before and after a 12-h incubation by liquid-chromatography-coupled mass spectrometry (LC–MS); settings: 2 µM
[19] = parabacteroides johnsonii, 12 h, 2 µM
Description: The drug is tested on Parabacteroides johnsonii strain: DSM18315 for biotransformation. The drug concentrations were measured before and after a 12-h incubation by liquid-chromatography-coupled mass spectrometry (LC–MS)

[20] = The drug is tested on Enterobacter cancerogenus strain: ATCC35316 for biotransformation. The drug concentrations were measured before and after a 12-h incubation by liquid-chromatography-coupled mass spectrometry (LC–MS); settings: 2 µM

Bacterial Biotransformation [2]	Bacterial Biotransformation [3]	Bacterial Biotransformation [4]	Bacterial Biotransformation [5]	Bacterial Biotransformation [6]	Bacterial Biotransformation [8]	Bacterial Biotransformation [9]	Bacterial Biotransformation [12]	Bacterial Biotransformation [13]	Bacterial Biotransformation [15]	Bacterial Biotransformation [16]	Bacterial Biotransformation [18]	Bacterial Biotransformation [19]	SMILES	Bacterial Biotransformation [1]	Bacterial Biotransformation [7]	Bacterial Biotransformation [10]	Bacterial Biotransformation [11]	Bacterial Biotransformation [14]	Bacterial Biotransformation [17]	Bacterial Biotransformation [20]
Compound NOT metabolized	Compound NOT metabolized	–	Compound NOT metabolized	Compound NOT metabolized	Compound NOT metabolized	Compound NOT metabolized	Compound NOT metabolized	Compound NOT metabolized	Compound NOT metabolized	Compound NOT metabolized	Compound NOT metabolized	Compound NOT metabolized	COC(=O)C1=C(C)NC(C)=C(C(=O)OC(C)C)C1c1cccc2nonc12 (stereo not given) [ISRADIPINE]	–	Compound NOT metabolized	Compound NOT metabolized	Compound NOT metabolized	Compound NOT metabolized	Compound NOT metabolized	Compound NOT metabolized
Compound NOT metabolized	Compound NOT metabolized	Compound NOT metabolized	Compound NOT metabolized	Compound NOT metabolized	Compound NOT metabolized	Compound NOT metabolized	Compound NOT metabolized	Compound NOT metabolized	Compound NOT metabolized	Compound NOT metabolized	Compound NOT metabolized	–	CN1CCN2c3ccccc3Cc3ccccc3C2C1 (stereo not given) [MIANSERIN]	Compound NOT metabolized	–	–	Compound NOT metabolized	–	Compound NOT metabolized	–
Compound NOT metabolized	Compound NOT metabolized	Compound NOT metabolized	Compound NOT metabolized	Compound NOT metabolized	Compound NOT metabolized	Compound NOT metabolized	Compound NOT metabolized	Compound NOT metabolized	Compound NOT metabolized	Compound NOT metabolized	Compound NOT metabolized	Compound NOT metabolized	CN(C)CCC=C1c2ccccc2COc2ccccc21 [DOXEPIN]	Compound NOT metabolized	–	Compound NOT metabolized	Compound NOT metabolized	–	Compound NOT metabolized	–
Compound NOT metabolized	Compound NOT metabolized	Compound NOT metabolized	Compound NOT metabolized	Compound NOT metabolized	Compound NOT metabolized	Compound NOT metabolized	Compound NOT metabolized	Compound NOT metabolized	Compound NOT metabolized	Compound NOT metabolized	Compound NOT metabolized	–	COc1ccc2cc([C@H](C)C(=O)O)ccc2c1 [NAPROXEN]	Compound NOT metabolized	Compound NOT metabolized	–	–	Compound NOT metabolized	–	–
Compound NOT metabolized	Compound NOT metabolized	Compound NOT metabolized	Compound NOT metabolized	Compound NOT metabolized	Compound NOT metabolized	Compound NOT metabolized	Compound NOT metabolized	Compound NOT metabolized	Compound NOT metabolized	Compound NOT metabolized	–	Compound NOT metabolized	CN1C(=O)CC(C)(c2ccccc2)C1=O (stereo not given) [METHSUXIMIDE]	Compound NOT metabolized	–	Compound NOT metabolized	Compound NOT metabolized	–	Compound NOT metabolized	–

SMILES	Bacterial Biotransformation [2]	Bacterial Biotransformation [3]	Bacterial Biotransformation [4]	Bacterial Biotransformation [5]	Bacterial Biotransformation [6]	Bacterial Biotransformation [8]	Bacterial Biotransformation [9]	Bacterial Biotransformation [12]	Bacterial Biotransformation [13]	Bacterial Biotransformation [15]	Bacterial Biotransformation [16]	Bacterial Biotransformation [18]	Bacterial Biotransformation [19]	Bacterial Biotransformation [1]	Bacterial Biotransformation [7]	Bacterial Biotransformation [10]	Bacterial Biotransformation [11]	Bacterial Biotransformation [14]	Bacterial Biotransformation [17]	Bacterial Biotransformation [20]
CN(C)CCOC(C)(c1ccccc1)c1ccccn1.O=C(O)CCC(=O)O (stereo not given) [DOXYLAMINE SUCCINATE]	Compound NOT metabolized	Compound NOT metabolized	Compound NOT metabolized	Compound NOT metabolized	Compound NOT metabolized	Compound NOT metabolized	Compound NOT metabolized	Compound NOT metabolized	Compound NOT metabolized	Compound NOT metabolized	Compound NOT metabolized	Compound NOT metabolized	–	Compound NOT metabolized	Compound NOT metabolized	Compound NOT metabolized	Compound NOT metabolized	Compound NOT metabolized	Compound NOT metabolized	–
CCOC(=O)[C@H](CCc1ccccc1)N[C@@H](C)C(=O)N1CCC[C@H]1C(=O)O.O=C(O)/C=C\C(=O)O [ENALAPRIL MALEATE]	Compound NOT metabolized	Compound NOT metabolized	Compound NOT metabolized	Compound NOT metabolized	Compound NOT metabolized	Compound NOT metabolized	Compound NOT metabolized	Compound NOT metabolized	–	Compound NOT metabolized	Compound NOT metabolized	Compound NOT metabolized	–	Compound NOT metabolized	Compound NOT metabolized	–	Compound NOT metabolized	Compound NOT metabolized	Compound NOT metabolized	–
CC1OC(OC2C(O)CC(OC3C(O)CC(OC4CCC5(C)C(CCC6C5CCC5(C)C(C7=CC(=O)OC7)CCC65O)C4)OC3C)OC2C)CC(O)C1O (stereo not given)	Compound NOT metabolized	Compound NOT metabolized	–	Compound NOT metabolized	Compound metabolized	–	Compound NOT metabolized	Compound metabolized	Compound metabolized	Compound NOT metabolized	Compound metabolized	Compound NOT metabolized	Compound metabolized	Compound NOT metabolized	Compound metabolized	Compound NOT metabolized	Compound NOT metabolized	Compound metabolized	Compound metabolized	Compound NOT metabolized
CCCN1C[C@H](CSC)C[C@@H]2c3cccc4[nH]cc(c34)C[C@H]21.CS(=O)(=O)O [PERGOLIDE MESYLATE]	Compound NOT metabolized	Compound NOT metabolized	–	Compound NOT metabolized	Compound NOT metabolized	Compound NOT metabolized	Compound NOT metabolized	Compound NOT metabolized	Compound NOT metabolized	Compound NOT metabolized	Compound NOT metabolized	–	Compound NOT metabolized	Compound NOT metabolized	Compound NOT metabolized	Compound NOT metabolized	Compound NOT metabolized	–	Compound NOT metabolized	Compound NOT metabolized
